The values that follow come from patent US5436254A, “Carbostyril derivatives” (Otsuka Pharmaceutical Company, Ltd., priority 1989, dated 1995).

Where a name gives a salt, the structure may show the parent alone.

For one test, the target named is V1 receptor (Rattus norvegicus, UniProt P30560). As to the kind of experiment: biochemical. In kind it is binding.
Chain of V1 receptor (P30560 whole entry): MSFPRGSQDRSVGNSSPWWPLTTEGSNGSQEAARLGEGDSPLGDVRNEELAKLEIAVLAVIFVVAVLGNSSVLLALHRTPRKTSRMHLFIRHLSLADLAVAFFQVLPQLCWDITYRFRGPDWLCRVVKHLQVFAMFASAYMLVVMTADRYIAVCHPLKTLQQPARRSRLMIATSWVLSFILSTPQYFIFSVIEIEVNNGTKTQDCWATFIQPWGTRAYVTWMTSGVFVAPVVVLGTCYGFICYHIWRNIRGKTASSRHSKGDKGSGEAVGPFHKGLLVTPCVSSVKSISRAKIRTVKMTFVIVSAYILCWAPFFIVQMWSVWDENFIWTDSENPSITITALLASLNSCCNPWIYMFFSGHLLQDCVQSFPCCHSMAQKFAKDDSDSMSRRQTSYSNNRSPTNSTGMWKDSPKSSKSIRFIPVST
Details: not given
By IC50 is commonly meant the point on the concentration scale where inhibition reaches its midpoint. For `O=C(c1ccc2ccccc2c1)N1CCC(N2C(=O)CCc3ccccc32)CC1` [Example 116, 1-[1-(2-Naphthylcarbonyl)-4-piperidinyl]-3,4-dihydrocarbostyril], 760 nM corresponded to half-maximal inhibition (IC50). Still for that read-out and setting: the same measure for `O=C(c1cnc2ccccc2c1)N1CCC(N2C(=O)CCc3ccccc32)CC1` [Example 117, 1-[1-(3-quinolylcarbonyl)-4-piperidinyl]-3,4-dihydrocarbostyril]: 1500 nM; for `COc1ccc(C(=O)N2CCC(N3C(=O)CCc4ccccc43)CC2)cc1[N+](=O)[O-]` [Example 119, 1-[1-(3-Nitro-4-methoxybenzoyl)-4-piperidinyl]-3,4-dihydrocarbostyril]: 1400 nM; for `CCOc1ccc(C(=O)N2CCC(N3C(=O)CCc4cc(F)c(F)cc43)CC2)c(OC)c1` [Example 120, 6,7-Difluoro-1-[1-(2-methoxy-4-ethoxybenzoyl)-4-piperidinyl]-3,4-dihydrocarbostyril]: 200 nM. `CNC(=O)CCCOc1ccc(C(=O)N2CCC(N3C(=O)CCc4ccccc43)CC2)cc1` [Example 121, 1-{1-[4-(3-Methylaminocarbonylpropoxy)benzoyl]-4-piperidinyl}-3,4-dihydrocarbostyril] yielded an IC50 of 460 nM.

On to `O=C(c1ccc(C=CCCO)cc1)N1CCC(N2C(=O)CCc3ccccc32)CC1` [Example 122, 1-{1-[4-(4-Hydroxy-1-butenyl)benzoyl]-4-piperidinyl}-3,4-dihydrocarbostyril], for which the IC50 amounted to 710 nM.

`O=C(c1ccc(CCCCO)cc1)N1CCC(N2C(=O)CCc3ccccc32)CC1` [Example 123, 1-{1-[4-(4-Hydroxybutyl)benzoyl]-4-piperidinyl}-3,4-dihydrocarbostyril] registered an IC50 of 350 nM. For `CC(=O)OCCCCc1ccc(C(=O)N2CCC(N3C(=O)CCc4ccccc43)CC2)cc1` [Example 124, 1-{1-[4-(4-Acetoxybutyl)benzoyl]-4-piperidinyl}-3,4-dihydrocarbostyril], the IC50 is 320 nM. Same read-out and setting: the same measure for `O=C(c1ccc(OCCCCn2cccc2)cc1)N1CCC(N2C(=O)CCc3ccccc32)CC1` [Example 125, 1-[1-{4-[4-(1-pyrrolyl)butoxy]benzoyl}-4-piperidinyl]-3,4-dihydrocarbostyril]: 590 nM; for `CNc1ccc(C(=O)NCCCCOc2ccc(C(=O)N3CCC(N4C(=O)CCc5ccccc54)CC3)cc2)cc1` [Example 126, 1-[1-{4-[(4-Methylaminobenzoyl)aminobutoxy]-benzoyl}-4-piperidinyl]-3,4-dihydrocarbostyril]: 360 nM; for `CC[S+]([O-])CCCOc1ccc(C(=O)N2CCC(N3C(=O)CCc4ccccc43)CC2)cc1` (stereo not drawn) [Example 127, 1-{1-[4-(Ethylsulfinylpropoxy)benzoyl]-4-piperidinyl}-3,4-dihydrocarbostyril]: 610 nM. Compound `O=C(c1ccc(OCCCCCCO)cc1)N1CCC(N2C(=O)CCc3ccccc32)CC1` [Example 128, 1-{1-[4-(6-Hydroxyhexyloxy)benzoyl]-4-piperidinyl}-3,4-dihydrocarbostyril] returned an IC50 of 230 nM. In the case of `NC(=O)OCCCCCOc1ccc(C(=O)N2CCC(N3C(=O)CCc4ccccc43)CC2)cc1` [Example 129, 1-{1-[4-(5-Carbamoyloxypentyloxy)benzoyl]-4-piperidinyl}-3,4-dihydrocarbostyril], 180 nM corresponded to half-maximal inhibition (IC50). `CC(=O)OCCCCCCOc1ccc(C(=O)N2CCC(N3C(=O)CCc4ccccc43)CC2)cc1` [Example 130, 1-{1-[4-(6-Acetoxyhexyloxy)benzoyl]-4-piperidinyl}-3,4-dihydrocarbostyril]: the IC50 came to 390 nM. On the same count and under the same terms, the figure for `CN(C)CC(O)CCCCOc1ccc(C(=O)N2CCC(N3C(=O)CCc4ccccc43)CC2)cc1` (stereo not drawn) [Example 131, 1-{1-[4-(6-Dimethylamino-5-hydroxyhexyloxy)benzoyl]-4-piperidinyl}-3,4-dihydrocarbostyril] is 66 nM; for `O=C(c1ccc(OCCCN2CCNCC2)cc1)N1CCC(N2C(=O)CCc3ccccc32)CC1` [Example 132, 1-[1-{4-[3-(1-piperazinyl)propoxy]benzoyl}-4-piperidinyl]-3,4-dihyrocarbostyril.dihydrochloride.trihydrate] it is 160 nM; for `O=C(c1ccc(OCCCN2CCN(Cc3ccccc3)CC2)cc1)N1CCC(N2C(=O)CCc3ccccc32)CC1` [Example 133, 1-[1-{4-[3-(4-Benzyl-1-piperazinyl)propoxy]benzoyl}-4-piperidinyl]-3,4-dihydrocarbostyril.dioxalate] it is 330 nM.

In turn, `CC(=O)N1CCN(CCCOc2ccc(C(=O)N3CCC(N4C(=O)CCc5ccccc54)CC3)cc2)CC1` [Example 134, 1-[1-{4-[3-(4-Acetyl-1-piperazinyl)propoxy]-benzoyl}-4-piperidinyl]-3,4-dihydrocarbostyril] had a half-maximal inhibitory concentration (IC50) of 160 nM. For the compound `O=C(Nc1ccccc1)N1CCN(CCCOc2ccc(C(=O)N3CCC(N4C(=O)CCc5ccccc54)CC3)cc2)CC1` [Example 135, 1-[1-{4-[3-(4-Anilinocarbonyl-1-piperazinyl)propoxy]benzoyl}-4-piperidinyl]-3,4-dihydrocarbostyril], the IC50 was 200 nM. On the same count and under the same terms, the same measure for `CN1CCN(CCCOc2ccc(C(=O)N3CCC(N4C(=O)CCc5ccccc54)CC3)cc2)CC1` [Example 136, 1-[1-{4-[3-(4-Methyl-1-piperazinyl)propoxy]benzoyl}-4-piperidinyl]-3,4-dihydrocarbostyril.dioxalate]: 180 nM; for `O=C(CN1CCN(CCCOc2ccc(C(=O)N3CCC(N4C(=O)CCc5ccccc54)CC3)cc2)CC1)c1ccccc1` [Example 137, 1-[1-{4-[3-(4-Benzoylmethyl-1-piperazinyl)propoxy]benzoyl}-4-piperidinyl]-3,4-dihydrocarbostyril.dioxalate]: 120 nM; for `O=C(c1ccc(OCCCN2CCN(CC(O)c3ccccc3)CC2)cc1)N1CCC(N2C(=O)CCc3ccccc32)CC1` (stereo not drawn) [Example 138, 1-{1-[4-{3-[4-(2-Phenyl-2-hydroxyethyl)-1-piperazinyl]propoxy}benzoyl]-4-piperidinyl}-3,4-dihydrocarbostyril.dioxalate]: 240 nM. The compound `CCOc1ccc(C(=O)N2CCC(N3C(=O)CCc4c(F)cc(F)cc43)CC2)c(OC)c1` [Example 139, 5,7-Difluoro-1-[1-(2-methoxy-4-ethoxybenzoyl)-4-piperidinyl]-3,4-dihydrocarbostyril] registered a 50% inhibitory concentration (IC50) of 51 nM. In turn, `CS(=O)(=O)NCCCCCCOc1ccc(C(=O)N2CCC(N3C(=O)CCc4ccccc43)CC2)cc1` [Example 142, 1-{1-[4-(6-Methylsulfonylaminohexyloxy)benzoyl]-4-piperidinyl}-3,4-dihydrocarbostyril] gave a half-maximal inhibitory concentration (IC50) of 100 nM.

In the case of `CCS(=O)(=O)CCCOc1ccc(C(=O)N2CCC(N3C(=O)CCc4ccccc43)CC2)cc1` [Example 143, 1-{1-[4-(3-Ethylsulfonylpropoxy)benzoyl]-4-piperidinyl}-3,4-dihydrocarbostyril], 550 nM corresponded to half-maximal inhibition (IC50). Still for that read-out and setting: the figure for `CCN(CC)CC(O)CCCCOc1ccc(C(=O)N2CCC(N3C(=O)CCc4ccccc43)CC2)cc1` (stereo not drawn) [Example 144, 1-{1-[4-(6-Diethylamino-5-hydroxyhexyloxy)benzoyl]-4-piperidinyl}-3,4-dihydrocarbostyril] is 22 nM; for `O=CNCCCOc1ccc(C(=O)N2CCC(N3C(=O)CCc4ccc(F)cc43)CC2)cc1` [Example 145, 1-{1-[4-(3-Formylaminopropoxy)benzoyl]-4-piperidinyl}-7-fluoro-3,4-dihydrocarbostyril] it is 170 nM. Take `NC(=O)[C@H](Cc1ccc(O)cc1)NC(=O)CCCCCOc1ccc(C(=O)N2CCC(N3C(=O)CCc4ccccc43)CC2)cc1` [Example 146, 1-{1-[4-{5-[1-(S)-Carbamoyl-2-(4-hydroxyphenyl)]ethylaminocarbonylpentyloxy}benzoyl]-4-piperidinyl}-3,4-dihydrocarbostyril]: the IC50 is 73 nM. `CC(C)[C@H](NC(=O)CCCCCOc1ccc(C(=O)N2CCC(N3C(=O)CCc4ccccc43)CC2)cc1)C(N)=O` [Example 147, 1-{1-[4-{5-[1-(S)-Carbamoyl-2-methyl]propylaminocarbonylpentyloxy}benzoyl]-4-piperidinyl}-3,4-dihydrocarbostyril]: half-maximal inhibition (IC50) was put at 98 nM. `CN(C)C(=O)CCCOc1ccc(C(=O)N2CCC(N3C(=O)CCc4ccccc43)CC2)cc1` [Example 148, 1-{1-[4-(3-Dimethylaminocarbonylpropoxy)benzoyl]-4-piperidinyl}-3,4-dihydrocarbostyril]: it took 360 nM to reach half-maximal inhibition (IC50). With `NC(=O)[C@H](Cc1c[nH]cn1)NC(=O)CCCCCOc1ccc(C(=O)N2CCC(N3C(=O)CCc4ccccc43)CC2)cc1` [Example 149, 1-{1-[4-{5-[1-(S)-Carbamoyl-2{4(1H)-imidazoyl}]ethylaminocarbonylpentyloxy)benzoyl]-4-piperidinyl}-3,4-dihydrocarbostyril], the IC50 was 150 nM. Regarding `NC(=O)CC[C@H](NC(=O)CCCCCOc1ccc(C(=O)N2CCC(N3C(=O)CCc4ccccc43)CC2)cc1)C(N)=O` [Example 150, 1-{1-[4-(5-[1-(S),3-Dicarbamoyl]propylaminocarbonylpentyloxy)benzoyl]-4-piperidinyl}-3,4-dihydrocarbostyril], the IC50 was 96 nM. Still for that read-out and setting: the same measure for `CCOc1ccc(C(=O)N2CCC(N3C(=O)C(C(=O)O)Cc4ccccc43)CC2)c(OC)c1` (stereo not drawn) [Example 152, 1-[1-(2-Methoxy-4-ethoxybenzoyl)-4-piperidinyl]-3-carboxy-3,4-dihydrocarbostyril]: 1600 nM. With `CSCC[C@H](NC(=O)CCCCCOc1ccc(C(=O)N2CCC(N3C(=O)CCc4ccccc43)CC2)cc1)C(N)=O` [Example 153, 1-{1-[4-(5-[1-(S)-Carbamoyl-3-(methylthio)]propylaminocarbonylpentyloxy)benzoyl]-4-piperidinyl}-3,4-dihydrocarbostyril], the IC50 amounted to 84 nM.

The same test, now with this note: [H]3-Arg-vasopressin 2×10^-10 M, rat liver plasma membrane, 37° C., 10 minutes, pH 8.0.
In turn, `COc1ccc(C(=O)N2CCC(N3C(=O)CCc4ccccc43)C(C)C2)c(OC)c1` (stereo not drawn) [Example 118, 1-[3-Methyl-1-(2,4-dimethoxycarbonyl)-4-piperidinyl]-3,4-dihydrocarbostyril] had an IC50 of 260 nM.

Staying with this test, now noted: read-out: IC50.
On to `CCOc1ccc(C(=O)N2CCC(n3c(=O)ccc4ccc(F)cc43)CC2)c(OC)c1` [Example 151, 1-[1-(2-Methoxy-4-ethoxybenzoyl)-4-piperidinyl]-7-fluorocarbostyril], for which the IC50 worked out at 160 nM.
